# Values quoted from earlier work, collected in patent US20050118222A1, “Product to combat ticks and the process for the product's preparation” (priority 2002, published 2005).
# Experiments:
# [1] = in vivo
# [2] = tested on: manure-processing insect and coleopterous flora in the soil
substance,measurement,setting,value
(4″R)-4″-epi(Acetylamino)-4″-deoxyavermectin B1 [Eprinomectin],applied drug eliminated through the milk,in vivo,0.1%
same,"elimination through the milk, times less compared to ivermectin or moxidectin",versus ivermectin or moxidectin,50 times
same,elimination through dung,[1],85%
same,effect on manure-processing insect and coleopterous flora in the soil,[2],does not affect
